The source of these data is patent US20240251785A1, “SMALL MOLECULE ANTAGONISTS AND AGONISTS OF ARTHROPOD KININ RECEPTORS FOR PEST CONTROL” (The Texas A&M University System, priority 2021, published 2024).

For experiment [1], the system named is vector-only (V/O) CHO-K1 cells. The experiment is described as follows: Dose-response dual-addition calcium fluorescence assay on vector-only cells. It counts as cell-based. As to conditions: for IC50: read-out: V/O antagonist IC50.
Experiment [2] addresses recombinant tick kinin receptor (BMLK3) (Rhipicephalus microplus, UniProt Q9NHA4). The experiment is described as follows: Dose-response dual-addition calcium fluorescence assay on BMLK3 cells. It counts as cell-based. The following applies: for EC50: read-out: BMLK3 EC50; for validation mark in dose-response assay: Table 3.
The test system of experiment [3] is R. microplus kinin receptor. The experiment is described as follows: High-throughput dual-addition calcium fluorescence screen on BMLK3 cells. The class given is cell-based, Rhipicephalus microplus. As to conditions: for antagonist Io (%): compound 2 μmol L^−1, 5 min, then FFFSWGa 500 nmol L^−1; for agonist NPA (%): compound 2 μmol L^−1, first addition, relative to FFFSWGa 500 nmol L^−1.

Setting [4] is: virtual hit molecules, dual-addition assay, vector-only cell (V/O).
Where [5] appears, read: virtual hit molecules, dual-addition assay, recombinant tick kinin receptor (BMLK3) cells.
The mark [6] stands for this setting: virtual hit molecules, dual-addition assay, recombinant tick kinin receptor (BMLK3) cells, read-out: BMLK3 antagonist IC50.
Setting [7] is: V/O cells, second addition Rhimi-K-1 1 μmol L^−1.
The mark [8] stands for this setting: first addition, 20 concentrations 28 nM-25 μM.
The mark [9] stands for this setting: second addition Rhimi-K-1 1 μmol L^−1, read-out: BMLK3 IC50.

Like-named read-outs stand apart in the source and are kept apart here. A value given as a limit tells only on which side of the number the result lay.

recombinant tick kinin receptor (BMLK3), sequence (Q9NHA4 entry or part of it): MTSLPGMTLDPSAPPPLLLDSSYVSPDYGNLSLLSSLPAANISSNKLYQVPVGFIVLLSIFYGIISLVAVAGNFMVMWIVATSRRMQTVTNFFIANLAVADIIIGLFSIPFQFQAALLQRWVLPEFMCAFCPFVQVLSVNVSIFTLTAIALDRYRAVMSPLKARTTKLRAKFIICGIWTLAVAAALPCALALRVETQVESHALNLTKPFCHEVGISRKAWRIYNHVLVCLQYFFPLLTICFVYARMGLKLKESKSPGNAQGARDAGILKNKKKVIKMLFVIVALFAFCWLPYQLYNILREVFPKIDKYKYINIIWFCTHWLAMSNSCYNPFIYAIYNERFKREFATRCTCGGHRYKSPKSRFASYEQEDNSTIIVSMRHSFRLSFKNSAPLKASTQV

Broadly, the EC50 is the concentration at which the effect is half-maximal. For `O=[N+]([O-])c1ccc2nc(Nc3ccc(Br)cc3)c(Nc3ccc(Br)cc3)nc2c1` [SACC-0005102], the figures for the EC50 in experiment [1] (setting [4]) and in experiment [2] (setting [5]) were 0.485 µM and 1.08 µM, respectively. Further, the results for the IC50 in experiment [1] (setting [4]) and in experiment [2] (setting [6]) were 0.177 µM and 0.0832 µM, respectively.

Turning to `CC(=O)c1cc(C(=O)N[C@H](C)c2nc(-c3cccnc3)n[nH]2)cs1` [SACC-0007370], the 50% effective concentration (EC50) in experiment [1] (V/O cells, first addition) was < 0.0285 µM; in experiment [2] (setting [8]), 1.78 µM. The values for the IC50 in experiment [1] (setting [7]) and in experiment [2] (setting [9]) were > 25 µM and 1.42 µM, respectively. In experiment [2], the “validation mark in dose-response assay” value is listed as “*** (molecules which are either off-target or of low activity (<25 μM))”. Moreover, the “antagonist Io (%)” value in experiment [3] is reported as 60%.

For `C=CCNC(=S)NNC1=CC[C@@H](c2ccccc2)CC1` [SACC-0010978], the concentration giving a half-maximal response (EC50) was 0.0677 µM in experiment [1] (setting [4]) and > 25 µM in experiment [2] (setting [5]). Moreover, the IC50 in experiment [1] (setting [4]) came out at 12.2 µM; in experiment [2] (setting [6]), 9.82 µM.

As for `c1ccc(-c2csc3ncnc(N4CCCC4c4cccnc4)c23)cc1` (stereo not shown) [SACC-0011206], the EC50 in experiment [1] (setting [4]) is 17.5 µM; in experiment [2] (setting [5]), > 25 µM. The figures for the IC50 in experiment [1] (setting [4]) and in experiment [2] (setting [6]) were 0.985 µM and 6.54 µM, respectively.

Regarding `c1ccc(-c2csc3ncnc(Nc4ccc5c(c4)OCCO5)c23)cc1` [SACC-0011565], the EC50 is > 25 µM in experiment [1] (setting [4]) and 0.0417 µM in experiment [2] (setting [5]). The IC50 is 1.22 µM in experiment [1] (setting [4]) and > 25 µM in experiment [2] (setting [6]).

As for `CC(C)(C)c1ccc(C(=O)NNC(=S)NC(=O)c2cccnc2)cc1` [SACC-0015467], the EC50 in experiment [1] (V/O cells, first addition) is 3.45 µM; in experiment [2] (setting [8]), 4.32 µM. In addition, the IC50 in experiment [1] (setting [7]) was found to be 7.1 µM; in experiment [2] (setting [9]), 6.3 µM. In addition, the “validation mark in dose-response assay” value in experiment [2] was “*** (molecules which are either off-target or of low activity (<25 μM))”. Also, the “agonist NPA (%)” value in experiment [3] was 70%.

Regarding `CC1(C)CSC(=NCc2ccccc2)N1C(=O)Cc1noc2ccccc12` [SACC-0024181], the concentration giving a half-maximal response (EC50) in experiment [1] (V/O cells, first addition) was found to be 8.1 µM; in experiment [2] (setting [8]), 9.01 µM. The IC50 in experiment [1] (setting [7]) was 6.27 µM; in experiment [2] (setting [9]), 0.252 µM. In addition, the “validation mark in dose-response assay” value in experiment [2] is given as “*** (molecules which are either off-target or of low activity (<25 μM))”. In addition, the “agonist NPA (%)” value in experiment [3] is given as 48%.

On to `Cc1cc2ncn(CCCCSc3ccccc3)c2cc1C` [SACC-0025692], for which the EC50 in experiment [1] (V/O cells, first addition) was 9.54 µM; in experiment [2] (setting [8]), > 25 µM. Further, the IC50 in experiment [1] (setting [7]) stood at 0.112 µM; in experiment [2] (setting [9]), 0.765 µM. In experiment [2], the “validation mark in dose-response assay” value was “*** (molecules which are either off-target or of low activity (<25 μM))”. Besides, the “antagonist Io (%)” value in experiment [3] was 42%.

Turning to `Cc1ccc(S(=O)(=O)Nc2nc(CN3CCCC3)nc3sc(C)c(C)c23)cc1` [SACC-0025777], the half-maximal effective concentration (EC50) in experiment [1] (setting [4]) was 1.57 µM; in experiment [2] (setting [5]), > 25 µM. For the same compound, the results for the IC50 in experiment [1] (setting [4]) and in experiment [2] (setting [6]) were > 25 µM and 0.106 µM, respectively.

In the case of `Cc1oc(S(=O)(=O)N2CCOCC2)cc1C(=O)Nc1ccc(F)cc1` [SACC-0026188], the half-maximal effective concentration (EC50) was 0.154 µM in experiment [1] (V/O cells, first addition) and < 0.0285 µM in experiment [2] (setting [8]). The IC50 in experiment [1] (setting [7]) is > 25 µM; in experiment [2] (setting [9]), 0.225 µM. For the same compound, the “validation mark in dose-response assay” value in experiment [2] is on record as “*** (molecules which are either off-target or of low activity (<25 μM))”. For the same compound, the “antagonist Io (%)” value in experiment [3] is reported as 67%.

Turning to `CC1=C(Cc2ccccc2)C(C)Nc2ccccc2N1` (stereo not shown) [SACC-0026915], the EC50 came out at 1 µM in experiment [1] (V/O cells, first addition) and 0.662 µM in experiment [2] (setting [8]). In addition, the IC50 in experiment [1] (setting [7]) is > 25 µM; in experiment [2] (setting [9]), 4.6 µM. For the same compound, the “validation mark in dose-response assay” value in experiment [2] was “*** (molecules which are either off-target or of low activity (<25 μM))”. Besides, in experiment [3], the “agonist NPA (%)” value is reported as 111%.

Turning to `Cc1n[nH]c(C)c1N1C(=O)c2cccc3c(N4CCCCCC4)ccc(c23)C1=O` [SACC-0027895], the 50% effective concentration (EC50) was > 25 µM in experiment [1] (V/O cells, first addition) and > 25 µM in experiment [2] (setting [8]). For the same compound, the IC50 in experiment [1] (setting [7]) and in experiment [2] (setting [9]) was > 25 µM in each case. In addition, the “validation mark in dose-response assay” value in experiment [2] was “*** (molecules which are either off-target or of low activity (<25 μM))”. Further, the “agonist NPA (%)” value in experiment [3] is on record as 84%.

For `CC1=CC(=NNC(=S)NCc2ccccc2)CC1` [SACC-0029249], the EC50 in experiment [1] (setting [4]) and in experiment [2] (setting [5]) was > 25 µM each time. Moreover, the IC50 in experiment [1] (setting [4]) was < 0.0285 µM; in experiment [2] (setting [6]), 1.88 µM.

As to `Cc1cc(C(C)(C)C)cc(C)c1CSC(=N)N` [SACC-0029825], the concentration for a half-maximal effect (EC50) was 5.46 µM in experiment [1] (V/O cells, first addition) and 6.95 µM in experiment [2] (setting [8]). The IC50 was 9.81 µM in experiment [1] (setting [7]) and < 0.0285 µM in experiment [2] (setting [9]). For the same compound, the “validation mark in dose-response assay” value in experiment [2] is given as “*** (molecules which are either off-target or of low activity (<25 μM))”. In addition, the “agonist NPA (%)” value in experiment [3] was 70%.

Take `Cc1ccc(-c2ccsc2C(=O)Nc2ccc3c(c2)CCO3)cc1` [SACC-0033336]: the 50% effective concentration (EC50) in experiment [1] (V/O cells, first addition) was determined as 4.34 µM; in experiment [2] (setting [8]), 2.95 µM. The IC50 in experiment [1] (setting [7]) is > 25 µM; in experiment [2] (setting [9]), 7.17 µM. In addition, the “validation mark in dose-response assay” value in experiment [2] is “*** (molecules which are either off-target or of low activity (<25 μM))”. The “agonist NPA (%)” value in experiment [3] is 51%.

Take `Cc1nc(-c2ccc(CNc3ncnc4sccc34)o2)cs1` [SACC-0039825]: the values for the EC50 in experiment [1] (setting [4]) and in experiment [2] (setting [5]) were > 25 µM and < 0.0285 µM, respectively. Further, the IC50 in experiment [1] (setting [4]) was found to be 0.334 µM; in experiment [2] (setting [6]), 8.06 µM.

For `CCC(CO)Nc1nc(CN2CCCCC2)nc2scc(-c3ccccc3)c12` (stereo not shown) [SACC-0046099], the values for the EC50 in experiment [1] (setting [4]) and in experiment [2] (setting [5]) were 3.58 µM and > 25 µM, respectively. Moreover, the IC50 was determined as 2.45 µM in experiment [1] (setting [4]) and 8.31 µM in experiment [2] (setting [6]).

Take `CCc1cc2c(NCc3ccco3)nc(C)nc2s1` [SACC-0047526]: the EC50 in experiment [1] (setting [4]) and in experiment [2] (setting [5]) was > 25 µM each time. Besides, the IC50 in experiment [1] (setting [4]) and in experiment [2] (setting [6]) was > 25 µM each time.

Consider `Clc1ccc(-c2csc3ncnc(N4CCN(c5ccccn5)CC4)c23)cc1` [SACC-0064924], for which the EC50 stood at 11.9 µM in experiment [1] (setting [4]) and 17.3 µM in experiment [2] (setting [5]). The IC50 is > 25 µM in experiment [1] (setting [4]) and < 0.0285 µM in experiment [2] (setting [6]).

In the case of `CN1/C(=C/C=C/c2ccc3ccccc3[n+]2C)C=Cc2ccccc21` [SACC-0072383], the EC50 in experiment [1] (setting [4]) was found to be 0.294 µM; in experiment [2] (setting [5]) it was 0.326 µM. Also, the results for the IC50 in experiment [1] (setting [4]) and in experiment [2] (setting [6]) were > 25 µM and 0.501 µM, respectively.

With `COc1ccc(C=Nn2c(C(F)(F)F)n[nH]c2=S)cc1` [SACC-0087120], the figures for the EC50 in experiment [1] (setting [4]) and in experiment [2] (setting [5]) were 3.16 µM and 1.11 µM, respectively. In addition, the IC50 in experiment [1] (setting [4]) was > 25 µM; in experiment [2] (setting [6]), < 0.0285 µM.

`COc1cc2c(cc1OC)CN(c1ncnc3scc(-c4ccc(Cl)cc4)c13)CC2` [SACC-0095849]: the values for the EC50 in experiment [1] (setting [4]) and in experiment [2] (setting [5]) were 0.393 µM and > 25 µM, respectively. Further, the IC50 stood at 0.914 µM in experiment [1] (setting [4]) and 8.47 µM in experiment [2] (setting [6]).

As for `N#CC(=C(O)c1ccc(-c2ccc(Cl)cc2Cl)o1)c1nc2ccccc2c(=O)[nH]1` [SACC-0112961], the EC50 in experiment [1] (setting [4]) is 0.243 µM; in experiment [2] (setting [5]) it was > 25 µM. For the same compound, the IC50 was > 25 µM in experiment [1] (setting [4]) and < 0.0285 µM in experiment [2] (setting [6]).

As to `O=C(c1ccco1)N1CCN(c2cccc3scc(-c4cccs4)c23)CC1` [SACC-0117388], the results for the EC50 in experiment [1] (setting [4]) and in experiment [2] (setting [5]) were 1.78 µM and 0.124 µM, respectively. Also, the IC50 in experiment [1] (setting [4]) was determined as 8.39 µM; in experiment [2] (setting [6]), 13.2 µM.

In the case of `S=C(NCc1ccccc1)NN=C1CCC(c2ccccc2)CC1` (stereo not shown) [SACC-0131532], the 50% effective concentration (EC50) is > 25 µM in experiment [1] (setting [4]) and 16.6 µM in experiment [2] (setting [5]). Further, the IC50 in experiment [1] (setting [4]) was > 25 µM; in experiment [2] (setting [6]), 1.41 µM.
